Results published in publication PMC5544777, “Kinetics and thermodynamics of the protein-ligand interactions in the riboflavin kinase activity of the FAD synthetase from Corynebacterium ammoniagenes” (Scientific Reports, 2017).
Values joined by “and” are separate entries in the source; they are usually repeats but may differ in a detail not shown here. Equal values may be shown once. Read-outs that look alike come from different tables or passages of the source.

What was measured:
[1] = biological target: T1, RFK module of CaFADS (Corynebacterium ammoniagenes, UniProt Q59263, L183M); experiment: Isothermal titration calorimetry of binary and ternary interactions; type: binding
T1 construct: a truncated CaFADS variant consisting in the isolated C-terminal RFK module; made in house; host or cells: E. coli BL21(DE3)
Description: Isothermal titration calorimetry (ITC) experiments were performed to elucidate the order in which ligands bind to the enzyme, as well as the binding inhibition effects from the thermodynamic point of view. Experiments were carried out in an AutoITC200 (MicroCal) that was thermostated at 25 °C. […] Titrations with FLV ligands of mixtures that contained the enzyme prebound with the ANP ligand were also carried out, as well as ANP titrations of mixtures of the enzyme saturated with FLV ligands. In these experiments, the titration was performed by stepwise injecting the titrating ligand. Up to 19 injections of 2 μL each were added to the calorimetric sample cell and mixed at a stirring speed of 1000 r.p.m. Ligands and protein were dissolved in 20 mM PIPES, pH 7.0, either in the presence or absence of 0.8 mM MgCl2, and degassed prior to titration. The association constant (K a), the enthalpy change (ΔH) and the binding stoichiometry (N) were obtained through a nonlinear least squares regression of the data using a homemade model for one or two independent binding sites, which was implemented in Origin 7.0 (OriginLab) as previously described, [20]. The entropic contribution (-TΔS), the Gibbs free energy (ΔG) and the dissociation constant (K d) were obtained through essential thermodynamic equations.
Experiments were performed in triplicate.

[2] = biological target: T1, RFK module of CaFADS; experiment: Steady-state RFK activity (HPLC quantification of flavins); type: biochemical; conditions: for type of inhibition of the RFK activity: Dixon, Cornish-Bowden and Lineweaver-Burk plots
Description: In all cases, reactions were initiated by addition of the enzyme to a final concentration of ≈40 nM, which was followed by 1 min of incubation, and the reactions were stopped by boiling the samples at 100 °C for 5 min as previously described, [20]. The flavin composition of the supernatant was analyzed using an Alliance HPLC system (Waters) equipped with a 2707 autosampler and an HSST3 column (4.6 × 50 mm, […]; Waters) preceded by a precolumn (4.6 × 20 mm, […]; Waters) as previously described, [20]. […] All the experiments were carried out in triplicate.
Additionally, Dixon plots (1/(v 0/[e]) vs [I]) and Cornish-Bowden representations ([S]/(v 0/[e]) vs [I]) were used to reveal the type of inhibition, [43].

[3] = Flavin photobleaching decay in the stopped-flow equipment; type: physicochemical; conditions: for photobleaching rate: flavin fluorescence decay during stopped-flow measurements, 25 °C, 0.8 mM MgCl2, pH 7.0; for rate of slow linear fluorescence decay (photobleaching range): flavin mixed with the RFK module without ANP, stopped-flow
Description: Due to the deterioration that flavins undergo when they are exposed to light, we also evaluated the FLV photobleaching decay during measurements.

[4] = initial mixture RFK:FMN, 0.0 mM MgCl2
[5] = initial mixture RFK:FMN, 0.8 mM MgCl2
[6] = initial mixture RFK:RF, 0.0 mM MgCl2
[7] = initial mixture RFK:RF, 0.8 mM MgCl2
[8] = initial mixture RFK, 0.0 mM MgCl2
[9] = initial mixture RFK, 0.8 mM MgCl2
[10] = apparent, ATP varied, ~5 µM RF, [ADP] 20 μM
[11] = apparent, ATP varied, ~5 µM RF, [ADP] 50 μM
[12] = apparent, ATP varied, ~5 µM RF, [ADP] 90 μM
[13] = apparent, ATP varied, ~5 µM RF, [ADP] 170 μM
[14] = initial mixture RFK:ADP, 0.0 mM MgCl2
[15] = initial mixture RFK:ADP, 0.8 mM MgCl2
[16] = initial mixture RFK:ATP, 0.0 mM MgCl2
[17] = initial mixture RFK:ATP, 0.8 mM MgCl2
[18] = apparent, RF varied, saturating ATP, [FMN] 1 μM
[19] = apparent, RF varied, saturating ATP, [FMN] 2 μM
[20] = apparent, RF varied, saturating ATP, [FMN] 3 μM
[21] = apparent, RF varied, saturating ATP, [FMN] 5 μM

T1 sequence (Q59263 183-338 L183M): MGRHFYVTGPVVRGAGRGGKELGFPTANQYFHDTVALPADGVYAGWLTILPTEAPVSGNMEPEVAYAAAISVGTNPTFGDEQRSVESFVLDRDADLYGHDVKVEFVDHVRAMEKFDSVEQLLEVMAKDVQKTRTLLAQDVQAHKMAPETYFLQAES

SMILES: Nc1ncnc2c1ncn2[C@@H]1O[C@H](COP(=O)(O)OP(=O)(O)O)[C@@H](O)[C@H]1O [ADP]
- -TΔS [1, 4]: 9.3 kcal/mol
- ΔG [1, 4]: -6.6 kcal/mol
- ΔH [1, 4]: -15.9 kcal/mol
- Kd ([1]; initial mixture RFK:FMN, 0.0 mM MgCl2, read-out: Kd): 14.8 µM
- -TΔS [1, 5]: 1.8 kcal/mol
- ΔG [1, 5]: -8.5 kcal/mol
- ΔH [1, 5]: -10.3 kcal/mol
- Kd ([1]; initial mixture RFK:FMN, 0.8 mM MgCl2, read-out: Kd): 0.6 µM
- -TΔS [1, 6]: 25.4 kcal/mol
- ΔG [1, 6]: -6.5 kcal/mol
- ΔH [1, 6]: -31.8 kcal/mol
- Kd ([1]; initial mixture RFK:RF, 0.0 mM MgCl2, read-out: Kd): 17.1 µM
- -TΔS [1, 7]: 5.2 kcal/mol
- ΔG [1, 7]: -8.2 kcal/mol
- ΔH [1, 7]: -13.4 kcal/mol
- Kd ([1]; initial mixture RFK:RF, 0.8 mM MgCl2, read-out: Kd): 1 µM
- -TΔS [1, 8]: 0.6 kcal/mol
- ΔG [1, 8]: -5.8 kcal/mol
- ΔH [1, 8]: -6.4 kcal/mol
- Kd ([1]; initial mixture RFK, 0.0 mM MgCl2, 20 mM PIPES, pH 7.0, 25 °C, read-out: Kd): 51.4 µM
- -TΔS [1, 9]: 3.5 kcal/mol
- ΔG [1, 9]: -6.4 kcal/mol
- ΔH [1, 9]: -9.8 kcal/mol
- Kd ([1]; initial mixture RFK, 0.8 mM MgCl2, 20 mM PIPES, pH 7.0, 25 °C, read-out: Kd): 22.1 µM
- type of inhibition of the RFK activity [2]: competitive inhibitor
- Ki ([2]; global fit of Lineweaver-Burk equation, competitive inhibition, ~5 µM RF, read-out: KiADP): 17 ± 3.3 µM
- K m/K i ratio ([2]; product inhibitor potency, KmRF/KiFMN and KmATP/KiADP): ≈ 2.4

SMILES: Nc1ncnc2c1ncn2[C@@H]1O[C@H](COP(=O)(O)OP(=O)(O)OP(=O)(O)O)[C@@H](O)[C@H]1O [ATP]
- -TΔS [1, 4]: 9.3 kcal/mol
- ΔH [1, 4]: -17.9 kcal/mol
- -TΔS [1, 5]: 9.3 kcal/mol
- ΔH [1, 5]: -19.5 kcal/mol
- -TΔS [1, 6]: 66.6 kcal/mol
- ΔH [1, 6]: -72.5 kcal/mol
- -TΔS [1, 8]: -1.0 kcal/mol
- ΔH [1, 8]: -5.5 kcal/mol
- -TΔS [1, 9]: -0.6 kcal/mol
- ΔG [1, 9]: -6.1 kcal/mol
- ΔH [1, 9]: -5.6 kcal/mol
- KmATP ([2]; apparent, ATP varied, ~5 µM RF, [ADP] 0 μM, 25 °C, 0.8 mM MgCl2, pH 7.0): 60 ± 11 µM
- k cat ([2]; apparent, ATP varied, ~5 µM RF, [ADP] 0 μM, 25 °C, 20 mM PIPES, 0.8 mM MgCl2, pH 7.0): 160 ± 10 min⁻¹
- KmATP [2, 10]: 110 ± 20 µM
- k cat [2, 10]: 160 ± 10 min⁻¹
- KmATP [2, 11]: 140 ± 20 µM
- k cat [2, 11]: 140 ± 10 min⁻¹
- KmATP [2, 12]: 260 ± 20 µM
- k cat [2, 12]: 170 ± 10 min⁻¹
- KmATP [2, 13]: 700 ± 270 µM
- k cat [2, 13]: 170 ± 60 min⁻¹
- k cat ([2]; global fit of Lineweaver-Burk equation, competitive inhibition by ADP, ATP varied, ~5 µM RF): 130 ± 30 min⁻¹
- KmATP ([2]; global fit of Lineweaver-Burk equation, competitive inhibition by ADP, ~5 µM RF): 40 ± 20 µM and 40 ± 12 µM

SMILES: Cc1cc2nc3c(=O)[nH]c(=O)nc-3n(C[C@H](O)[C@H](O)[C@H](O)COP(=O)(O)O)c2cc1C [FMN, flavin mononucleotide]
- interaction with the RFK module on titration with the individual ligand ([1]; ITC thermograms, free RFK module, titrated at different temperatures): does not interact or interacts with undetectable ΔCp
- -TΔS [1, 14]: 10.6 kcal/mol
- ΔG [1, 14]: -7.1 kcal/mol
- ΔH [1, 14]: -17.7 kcal/mol
- -TΔS [1, 15]: -1.9 kcal/mol
- ΔG [1, 15]: -8.4 kcal/mol
- ΔH [1, 15]: -6.4 kcal/mol
- -TΔS [1, 16]: 15.4 kcal/mol
- ΔG [1, 16]: -6.3 kcal/mol
- ΔH [1, 16]: -21.7 kcal/mol
- -TΔS [1, 17]: -0.2 kcal/mol
- ΔG [1, 17]: -7.1 kcal/mol
- ΔH [1, 17]: -6.9 kcal/mol
- type of inhibition of the RFK activity [2]: uncompetitive inhibitor
- photobleaching rate [3]: 0.0041 ± 0.00018 min⁻¹
- rate of slow linear fluorescence decay (photobleaching range) [3]: 0.0041 ± 0.00024 min⁻¹

SMILES: Cc1cc2nc3c(=O)[nH]c(=O)nc-3n(C[C@H](O)[C@H](O)[C@H](O)CO)c2cc1C [RF, riboflavin]
- Kd ([1]; Kd, initial mixture RFK:ADP, 0.0 mM MgCl2): 14.5 µM
- Kd ([1]; Kd, initial mixture RFK:ADP, 0.8 mM MgCl2): 2.3 µM
- Kd ([1]; Kd, initial mixture RFK, 0.8 mM MgCl2, 20 mM PIPES, pH 7.0, 25 °C): 15.2 µM
- -TΔS [1, 14]: 67.7 kcal/mol
- ΔG [1, 14]: -6.6 kcal/mol
- ΔH [1, 14]: -74.3 kcal/mol
- -TΔS [1, 15]: 11.5 kcal/mol
- ΔG [1, 15]: -7.6 kcal/mol
- ΔH [1, 15]: -19.2 kcal/mol
- Kd [1, 16]: does not bind
- -TΔS [1, 8]: -0.9 kcal/mol
- ΔG [1, 8]: -6.9 kcal/mol
- ΔH [1, 8]: -5.9 kcal/mol
- -TΔS [1, 9]: 4.1 kcal/mol
- ΔG [1, 9]: -6.6 kcal/mol
- ΔH [1, 9]: -10.6 kcal/mol
- Ki [2]: 1.9 ± 0.2 µM
- KmRF ([2]; apparent, RF varied, saturating ATP, [FMN] 0 μM): 10 ± 2 µM
- k cat ([2]; apparent, RF varied, saturating ATP, [FMN] 0 μM, substrate inhibition model, 25 °C, 0.8 mM MgCl2, pH 7.0): 440 ± 50 min⁻¹
- KmRF [2, 18]: 5.0 ± 1.1 µM
- k cat [2, 18]: 280 ± 40 min⁻¹
- KmRF [2, 19]: 7.7 ± 1.4 µM
- k cat [2, 19]: 270 ± 50 min⁻¹
- KmRF [2, 20]: 3.6 ± 0.9 µM
- k cat [2, 20]: 140 ± 30 min⁻¹
- KmRF [2, 21]: 5.5 ± 2.1 µM
- k cat [2, 21]: 120 ± 40 min⁻¹
- k cat ([2]; global fit of Lineweaver-Burk equation, uncompetitive inhibition by FMN, RF varied, saturating ATP): 320 ± 40 min⁻¹ and 320 ± 30 min⁻¹
- KmRF ([2]; global fit of Lineweaver-Burk equation, uncompetitive inhibition by FMN, saturating ATP): 6.9 ± 0.4 µM
- photobleaching rate [3]: 0.0046 ± 0.00018 min⁻¹
- rate of slow linear fluorescence decay (photobleaching range) [3]: 0.0045 ± 0.00012 min⁻¹
